For data set [1], the system named is HBeAg (surrogate marker for cccDNA) in HepDES19 cells. In words: Engineered HepDES19 primary screen assay (HBeAg ELISA). Format: cell-based, HBV. The following applies: Hepatitis B virus, HepDES19, 120 h, read-out: IC50 (HBeAg level, HepDES19 primary screen assay), HepDES19 cells, 5 days compound incubation, HBeAg ELISA. A digest of the protocol: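 IC50 values come from 4-parameter logistic fits of HBeAg ELISA signal, the cccDNA surrogate, with CCK-8 run in parallel for viability. Compounds at half-log dilutions with 1% DMSO were applied for 5 days at 37 °C to HepDES19 cells previously cultured 8 days without Tet.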

A short description of data set [2]: Human microsome stability assay. Format: in vitro ADME. The settings on record: human liver microsomes, 1 μM test compound, 0.5 mg/mL microsomal protein, 37° C., pH 7.4, 0-30 minutes. A digest of the protocol: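 Parent compound remaining was measured by LC-MS/MS at 0, 3, 6, 9, 15 and 30 min, following ACN quench. Reactions held 1 μM compound and 0.5 mg/mL human liver microsomal protein in pH 7.4 phosphate buffer at 37 °C, started by NADPH regeneration (1 mM NADP, 1 mM MgCl2); controls lacked NADPH.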

The subject of data set [3] is HBsAg in HBV-infected PHH. Kind of data set: Cryopreserved primary human hepatocytes (PHH) HBV infection assay, extracellular HBsAg (CLIA). Format: cell-based. The settings on record: Hepatitis B virus, Hepatocyte, 216 h, read-out: HBsAg IC50, Cryopreserved PHH infected with HBV, 9 days post-compound treatment, extracellular HBsAg. A digest of the protocol:
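Cryopreserved PHH were infected with 5.8×10^6 HBV genome equivalents in medium with 4% PEG8000 and 1% DMSO. After 9 days of treatment, extracellular HBsAg was measured by CLIA, and IC50 was derived from a 4-parameter logistic fit.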

Structures are written as SMILES.

For `O=C(O)C1CC(OCCCOc2cc(C(F)(F)F)ccc2-c2cc(=O)c3cccc(Cl)c3o2)C1` (stereo not drawn) [Example C103, 3-[3-[2-(8-chloro-4-oxo-chromen-2-yl)-5-(trifluoromethyl)phenoxy]propoxy]cyclobutanecarboxylic acid], the IC50 was 2280 nM in data set [1] and 7.56 µM in data set [3]. Besides, the “Clearance of Human microsome” value in data set [2] amounted to 6.15 mL/min/kg.
On the same counts, the results for `O=C(O)COCC(O)COc1cc(Br)ccc1-c1cc(=O)c2cccc(Cl)c2o1` (stereo not drawn) [Example C113, 2-[3-[5-bromo-2-(8-chloro-4-oxo-chromen-2-yl)phenoxy]-2-hydroxy-propoxy]acetic acid] are 1280 nM, 8.89 µM and 6.15 mL/min/kg.
Taken in the same sequence, the figures for `COc1cc(OCCO[C@H]2C[C@@H](C(=O)NS(=O)(=O)C3CC3)C2)c(-c2cc(=O)c3cccc(Cl)c3o2)cc1OC` [Example C119, Cis-3-[2-[2-(8-chloro-4-oxo-chromen-2-yl)-4,5-dimethoxy-phenoxy]ethoxy]-N-cyclopropylsulfonyl-cyclobutanecarboxamide] were 3480 nM, 7.21 µM and 6.39 mL/min/kg.
Turning to `CS(=O)(=O)NC(=O)COCCOc1cc(C(F)(F)F)ccc1-c1cc(=O)c2cccc(Cl)c2o1` [Example C120, 2-[2-[2-(8-chloro-4-oxo-chromen-2-yl)-5-(trifluoromethyl)phenoxy]ethoxy]-N-methylsulfonyl-acetamide], the IC50 was 1050 nM in data set [1] and 4.12 µM in data set [3]. In data set [2], the “Clearance of Human microsome” value was 6.15 mL/min/kg.
Consider `CS(=O)(=O)NC(=O)[C@H]1C[C@@H](OCCOc2cc(Br)ccc2-c2cc(=O)c3cccc(Cl)c3o2)C1` [Example C122, Cis-3-[2-[5-bromo-2-(8-chloro-4-oxo-chromen-2-yl)phenoxy]ethoxy]-N-methylsulfonyl-cyclobutanecarboxamide], for which the IC50 in data set [1] is 1050 nM; in data set [3], 4.81 µM. For the same compound, the “Clearance of Human microsome” value in data set [2] stood at 7.32 mL/min/kg.
`COc1cc(OCCO[C@H]2C[C@@H](C(=O)NS(C)(=O)=O)C2)c(-c2cc(=O)c3cccc(Cl)c3o2)cc1OC` [Example C125, 3-[2-[2-(8-chloro-4-oxo-chromen-2-yl)-4,5-dimethoxy-phenoxy]ethoxy]-N-methylsulfonyl-cyclobutanecarboxamide]: the figures for the IC50 in data set [1] and in data set [3] were 4910 nM and 7.17 µM, respectively. Besides, the “Clearance of Human microsome” value in data set [2] is listed as 6.15 mL/min/kg.

The record behind these values is US11708344B2, “Flavone derivatives for the treatment and prophylaxis of hepatitis B virus disease” (Hoffmann-La Roche Inc., priority 2018, dated 2023).
